pIC50: −log10 of the molar value.
What follows are compounds tested against T1, recombinant human Myt1 (full length PKMYT1) (Homo sapiens, UniProt Q99640) (assay: ADP-Glo assay (Myt1 kinase activity)).
T1 sequence (Q99640 1-499): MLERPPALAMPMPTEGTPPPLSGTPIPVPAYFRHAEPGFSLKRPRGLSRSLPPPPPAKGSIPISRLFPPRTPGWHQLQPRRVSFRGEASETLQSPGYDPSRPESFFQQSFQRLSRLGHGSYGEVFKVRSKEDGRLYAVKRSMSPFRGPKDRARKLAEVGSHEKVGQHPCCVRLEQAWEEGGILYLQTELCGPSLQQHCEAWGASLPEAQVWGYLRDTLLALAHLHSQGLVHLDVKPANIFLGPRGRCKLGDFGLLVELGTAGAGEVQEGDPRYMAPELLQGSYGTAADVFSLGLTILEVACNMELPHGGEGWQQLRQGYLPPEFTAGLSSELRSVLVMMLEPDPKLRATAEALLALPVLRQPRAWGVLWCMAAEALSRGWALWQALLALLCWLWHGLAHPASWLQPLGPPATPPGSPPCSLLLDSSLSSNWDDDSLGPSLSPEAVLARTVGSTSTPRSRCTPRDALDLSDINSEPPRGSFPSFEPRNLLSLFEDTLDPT

| SMILES | pIC50 |
| --- | --- |
| Nc1c(-c2ccc(F)c3[nH]ncc23)c2ncc(F)cc2[nH]c1=O [Example 4] | 7.32 |
| COc1cnc2c(-c3ccc(F)c4[nH]ncc34)c(N)c(=O)[nH]c2c1 [Example 6, 3-Amino-4-(7-fluoro-1H-indazol-4-yl)-7-methoxy-1H-1,5-naphthyridin-2-one] | 7.65 |
| Nc1c(-c2ccc(F)c3[nH]ncc23)c2ncc(-c3ccn[nH]3)cc2[nH]c1=O [Example 9, 3-Amino-4-(7-fluoro-1H-indazol-4-yl)-7-(1H-pyrazol-5-yl)-1H-1,5-naphthyridin-2-one] | 7.79 |
| Nc1c(-c2ccc(F)c3[nH]ncc23)c2ncc(-c3ccns3)cc2[nH]c1=O [Example 10, 3-Amino-4-(7-fluoro-1H-indazol-4-yl)-7-isothiazol-5-yl-1H-1,5-naphthyridin-2-one] | 7.37 |
| Nc1c(-c2ccc(F)c3[nH]ncc23)c2ncc(-c3ccc(F)cn3)cc2[nH]c1=O [Example 14] | 7.35 |
| Nc1c(-c2ccc(F)c3[nH]ncc23)c2ncc(N3CCOCC3)cc2[nH]c1=O [Example 19, 3-Amino-4-(7-fluoro-1H-indazol-4-yl)-7-morpholino-1H-1,5-naphthyridin-2-one] | 7.52 |
| CC(C)(O)c1cnc2c(-c3ccc(F)c4[nH]ncc34)c(N)c(=O)[nH]c2c1 [Example 20, 3-Amino-4-(7-fluoro-1H-indazol-4-yl)-7-(1-hydroxy-1-methyl-ethyl)-1H-1,5-naphthyridin-2-one] | 7.62 |
| Cc1cc2[nH]c(=O)c(N)c(-c3ccc(F)c4[nH]ncc34)c2nc1N1CCOCC1 [Example 25, 3-Amino-4-(7-fluoro-1H-indazol-4-yl)-7-methyl-6-morpholino-1H-1,5-naphthyridin-2-one] | 7.73 |
| Cc1cc2[nH]c(=O)c(N)c(-c3ccc(F)c4[nH]ncc34)c2nc1N1CC2(COC2)C1 [Example 26, 3-Amino-4-(7-fluoro-1H-indazol-4-yl)-7-methyl-6-(2-oxa-6-azaspiro[3.3]heptan-6-yl)-1H-1,5-naphthyridin-2-one] | > 8.00 |
| Cc1cc2[nH]c(=O)c(N)c(-c3ccc(F)c4[nH]ncc34)c2nc1N1CC2(CN(C)C2)C1 [Example 27, 3-Amino-4-(7-fluoro-1H-indazol-4-yl)-7-methyl-6-(6-methyl-2,6-diazaspiro[3.3]heptan-2-yl)-1H-1,5-naphthyridin-2-one] | 7.67 |
| Cc1cc2[nH]c(=O)c(N)c(-c3ccc(F)c4[nH]ncc34)c2nc1N1CCN(C(C)C)CC1 [Example 28, 3-Amino-4-(7-fluoro-1H-indazol-4-yl)-6-(4-isopropylpiperazin-1-yl)-7-methyl-1H-1,5-naphthyridin-2-one] | 7.54 |
| Cc1cc2[nH]c(=O)c(N)c(-c3ccc(F)c4[nH]ncc34)c2nc1N1CC2CCC1CN2C (stereo not shown) [Example 31, 3-Amino-4-(7-fluoro-1H-indazol-4-yl)-7-methyl-6-(5-methyl-2,5-diazabicyclo[2.2.2]octan-2-yl)-1H-1,5-naphthyridin-2-one] | 7.67 |
| Nc1c(-c2cccc3[nH]ncc23)c2ncc(C3CC3)cc2[nH]c1=O [Example 34, 3-Amino-7-cyclopropyl-4-(1H-indazol-4-yl)-1H-1,5-naphthyridin-2-one] | 7.71 |
| Nc1c(-c2cccc3[nH]ncc23)c2ncc(-c3nccs3)cc2[nH]c1=O [Example 35, 3-Amino-4-(1H-indazol-4-yl)-7-thiazol-2-yl-1H-1,5-naphthyridin-2-one] | 7.59 |
| Nc1c(-c2cc(F)cc3[nH]ncc23)c2ncc(Cl)cc2[nH]c1=O [Example 36, 3-Amino-7-chloro-4-(6-fluoro-1H-indazol-4-yl)-1H-1,5-naphthyridin-2-one] | 7.42 |
| Cc1cc2[nH]c(=O)c(N)c(-c3ccc(F)c4[nH]ncc34)c2nc1OC1CCC1 [Example 46, 3-Amino-6-(cyclobutoxy)-4-(7-fluoro-1H-indazol-4-yl)-7-methyl-1H-1,5-naphthyridin-2-one] | 7.97 |
| Cc1cc2[nH]c(=O)c(N)c(-c3ccc(F)c4[nH]ncc34)c2cc1C [Example 48, 3-Amino-4-(7-fluoro-1H-indazol-4-yl)-6,7-dimethyl-1H-quinolin-2-one] | 7.57 |
| COc1c(C)cnc2c(-c3ccc(F)c4[nH]ncc34)c(N)c(=O)[nH]c12 [Example 51, 3-Amino-4-(7-fluoro-1H-indazol-4-yl)-8-methoxy-7-methyl-1H-1,5-naphthyridin-2-one] | 7.75 |

Further lines, results first:

| pIC50 | SMILES |
| --- | --- |
| 7.94 | Cc1c([C@@H]2C[C@H]2C)cnc2c(-c3ccc(F)c4[nH]ncc34)c(N)c(=O)[nH]c12 (racemic) [Example 144, 3-Amino-4-(7-fluoro-1H-indazol-4-yl)-8-methyl-7-[rac-(1R,2R)-2-methylcyclopropyl]-1H-1,5-naphthyridin-2-one] |
| > 8.00 | Cc1cc2[nH]c(=O)c(N)c(-c3ccc(F)c4[nH]ncc34)c2nc1Cl [Example 3, 3-Amino-6-chloro-4-(7-fluoro-1H-indazol-4-yl)-7-methyl-1H-1,5-naphthyridin-2-one] |
| 7.94 | Cn1cncc1-c1cnc2c(-c3ccc(F)c4[nH]ncc34)c(N)c(=O)[nH]c2c1 [Example 8, 3-Amino-4-(7-fluoro-1H-indazol-4-yl)-7-(3-methylimidazol-4-yl)-1H-1,5-naphthyridin-2-one] |
| 7.95 | Nc1c(-c2ccc(F)c3[nH]ncc23)c2ncc(-c3nccs3)cc2[nH]c1=O [Example 16, 3-Amino-4-(7-fluoro-1H-indazol-4-yl)-7-thiazol-2-yl-1H-1,5-naphthyridin-2-one] |
| 7.98 | Cc1cc2[nH]c(=O)c(N)c(-c3ccc(F)c4[nH]ncc34)c2nc1C1CC1 [Example 18, 3-Amino-6-cyclopropyl-4-(7-fluoro-1H-indazol-4-yl)-7-methyl-1H-1,5-naphthyridin-2-one] |
| 7.99 | Cc1cc2[nH]c(=O)c(N)c(-c3ccc(F)c4[nH]ncc34)c2nc1Br [Example 21, 3-Amino-6-bromo-4-(7-fluoro-1H-indazol-4-yl)-7-methyl-1H-1,5-naphthyridin-2-one] |
| > 8.00 | Cc1cc2[nH]c(=O)c(N)c(-c3ccc(F)c4[nH]ncc34)c2nc1N1CCN(C)CC1 [Example 22, 3-Amino-4-(7-fluoro-1H-indazol-4-yl)-7-methyl-6-(4-methylpiperazin-1-yl)-1H-1,5-naphthyridin-2-one] |
| 7.97 | Cc1cc2[nH]c(=O)c(N)c(-c3ccc(F)c4[nH]ncc34)c2nc1NC(C)C [Example 23, 3-Amino-4-(7-fluoro-1H-indazol-4-yl)-6-(isopropylamino)-7-methyl-1H-1,5-naphthyridin-2-one] |
| 7.81 | Cc1cc2[nH]c(=O)c(N)c(-c3ccc(F)c4[nH]ncc34)c2nc1N1CCC(O)C1 (stereo not shown) [Example 24, 3-Amino-4-(7-fluoro-1H-indazol-4-yl)-6-(3-hydroxypyrrolidin-1-yl)-7-methyl-1H-1,5-naphthyridin-2-one] |
| 7.92 | Cc1cc2[nH]c(=O)c(N)c(-c3ccc(F)c4[nH]ncc34)c2nc1N1CCN(C2CC2)CC1 [Example 29, 3-Amino-6-(4-cyclopropylpiperazin-1-yl)-4-(7-fluoro-1H-indazol-4-yl)-7-methyl-1H-1,5-naphthyridin-2-one] |
| 7.82 | Cc1cc2[nH]c(=O)c(N)c(-c3ccc(F)c4[nH]ncc34)c2nc1N1CC2CC1CN2C (stereo not shown) [Example 30, 3-Amino-4-(7-fluoro-1H-indazol-4-yl)-7-methyl-6-(5-methyl-2,5-diazabicyclo[2.2.1]heptan-2-yl)-1H-1,5-naphthyridin-2-one] |
| > 8.00 | Cc1cc2[nH]c(=O)c(N)c(-c3ccc(F)c4[nH]ncc34)c2nc1N1CCNCC1 [Example 44, 3-Amino-4-(7-fluoro-1H-indazol-4-yl)-7-methyl-6-piperazin-1-yl-1H-1,5-naphthyridin-2-one] |
| > 8.00 | Cc1cc2[nH]c(=O)c(N)c(-c3ccc(F)c4[nH]ncc34)c2nc1OCC1CC1 [Example 47, 3-Amino-6-(cyclopropylmethoxy)-4-(7-fluoro-1H-indazol-4-yl)-7-methyl-1H-1,5-naphthyridin-2-one] |
| > 8.00 | Cc1c(Cl)nc2c(-c3ccc(F)c4[nH]ncc34)c(N)c(=O)[nH]c2c1C [Example 49, 3-Amino-6-chloro-4-(7-fluoro-1H-indazol-4-yl)-7,8-dimethyl-1H-1,5-naphthyridin-2-one] |
| > 8.00 | Nc1c(-c2ccc(F)c3[nH]ncc23)c2nccc(Cl)c2[nH]c1=O [Example 50, 3-Amino-8-chloro-4-(7-fluoro-1H-indazol-4-yl)-1H-1,5-naphthyridin-2-one] |
| > 8.00 | Cc1nc2c(-c3ccc(F)c4[nH]ncc34)c(N)c(=O)[nH]c2cc1Cl [Example 52, 3-Amino-7-chloro-4-(7-fluoro-1H-indazol-4-yl)-6-methyl-1H-1,5-naphthyridin-2-one] |
| 7.97 | Cc1cnc2c(-c3ccc(F)c4[nH]ncc34)c(N)c(=O)[nH]c2c1Cl [Example 53, 3-Amino-8-chloro-4-(7-fluoro-1H-indazol-4-yl)-7-methyl-1H-1,5-naphthyridin-2-one] |
| 7.91 | Nc1c(-c2ccc(F)c3[nH]ncc23)c2nc(C3CC3)c(Cl)cc2[nH]c1=O [Example 55, 3-Amino-7-chloro-6-cyclopropyl-4-(7-fluoro-1H-indazol-4-yl)-1H-1,5-naphthyridin-2-one] |
| > 8.00 | Cc1nc2c(-c3ccc(F)c4[nH]ncc34)c(N)c(=O)[nH]c2c(C)c1Cl [Example 56, 3-Amino-7-chloro-4-(7-fluoro-1H-indazol-4-yl)-6,8-dimethyl-1H-1,5-naphthyridin-2-one] |
